PubChem BioAssay AID248 (DTP/NCI, 2004)
Inconclusive results and toxic doses are left out.

Test system: L1210 leukemia ip in BDF1 mice, survival T/C
Assay: NCI In Vivo Anticancer Drug Screen. Data for tumor model L1210 Leukemia (intraperitoneal) in B6D2F1 (BDF1) mice
Settings: endpoint: mean survival time, higher = longer survival
Summary of the method: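 Ratio derived from survival: compound-dosed mice over vehicle-dosed mice, all bearing a transplantable tumor.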

[1] = dose: 100.0 mg/kg/injection, schedule: Q01DX001 (ip), vehicle: saline
[2] = dose: 200.0 mg/kg/injection, schedule: Q01DX001 (ip), vehicle: saline
[3] = dose: 400.0 mg/kg/injection, schedule: Q01DX001 (ip), vehicle: saline
[4] = dose: 100.0 mg/kg/injection, schedule: Q01DX009 (ip), vehicle: saline with Tween-80
[5] = dose: 200.0 mg/kg/injection, schedule: Q01DX009 (ip), vehicle: saline with Tween-80

Oc1ccc(/C=N/N2CCN(/N=C/c3ccc(O)cc3O)CC2)c(O)c1
T/C [1]: 97 % of control | T/C [2]: 94 % of control | T/C [3]: 100 % of control

N#Cc1c[nH]n2c(=S)ncnc12
T/C [4]: 105 % of control | T/C [5]: 101 % of control

OC(/C=C/c1ccccc1)(c1ccccc1)c1ccccc1
T/C (dose: 100.0 mg/kg/injection, schedule: Q04DX003 (ip), vehicle: Klucel (hydroxypropylcellulose) (HPC)): 94 % of control | T/C (dose: 200.0 mg/kg/injection, schedule: Q04DX003 (ip), vehicle: Klucel (hydroxypropylcellulose) (HPC)): 93 % of control | T/C (dose: 400.0 mg/kg/injection, schedule: Q04DX003 (ip), vehicle: Klucel (hydroxypropylcellulose) (HPC)): 96 % of control

O=NN(CCCl)C(=O)NCCc1cccc[n+]1[O-]
T/C (dose: 6.25 mg/kg/injection, schedule: Q01DX001 (ip), vehicle: water): 154 % of control | T/C (dose: 12.5 mg/kg/injection, schedule: Q01DX001 (ip), vehicle: water): 184 % of control | T/C (dose: 25.0 mg/kg/injection, schedule: Q01DX001 (ip), vehicle: water): 312 % of control

CC(Cl)CN(CC(C)Cl)C(=O)Oc1ccccc1[N+](=O)[O-] (stereo not given)
T/C (dose: 100.0 mg/kg/injection, schedule: Q01DX009 (ip), vehicle: Klucel (hydroxypropylcellulose) (HPC)): 93 % of control | T/C (dose: 200.0 mg/kg/injection, schedule: Q01DX009 (ip), vehicle: Klucel (hydroxypropylcellulose) (HPC)): 104 % of control | T/C (dose: 400.0 mg/kg/injection, schedule: Q01DX009 (ip), vehicle: Klucel (hydroxypropylcellulose) (HPC)): 93 % of control

C=C(C)CSC(=S)NNc1ccccc1
T/C (dose: 150.0 mg/kg/injection, schedule: Q01DX009 (ip), vehicle: saline with Tween-80): 93 % of control | T/C (dose: 225.0 mg/kg/injection, schedule: Q01DX009 (ip), vehicle: saline with Tween-80): 86 % of control

c1ccc(N/N=C(\c2ccccc2)c2ccccn2)cc1
T/C (dose: 100.0 mg/kg/injection, schedule: Q01DX001 (ip), vehicle: saline with Tween-80): 105 % of control | T/C (dose: 200.0 mg/kg/injection, schedule: Q01DX001 (ip), vehicle: saline with Tween-80): 94 % of control | T/C (dose: 400.0 mg/kg/injection, schedule: Q01DX001 (ip), vehicle: saline with Tween-80): 94 % of control

CCCCOC(=N)N(CCCC)CC(C)(C)[N+](=O)[O-]
T/C (dose: 44.0 mg/kg/injection, schedule: Q01DX Z (ip), vehicle: methylcellulose (MC)): 98 % of control | T/C (dose: 100.0 mg/kg/injection, schedule: Q01DX Z (ip), vehicle: methylcellulose (MC)): 98 % of control

CC12CCC(=O)OC1(C)OC(=O)CC2 (stereo not given)
T/C (dose: 100.0 mg/kg/injection, schedule: Q01DX009 (ip), vehicle: saline): 94 % of control | T/C (dose: 200.0 mg/kg/injection, schedule: Q01DX009 (ip), vehicle: saline): 100 % of control | T/C (dose: 400.0 mg/kg/injection, schedule: Q01DX009 (ip), vehicle: saline): 95 % of control

O=[N+]([O-])c1ccc(-c2cc3ccccc3nc2Cl)cc1
T/C [1]: 92 % of control | T/C [2]: 90 % of control | T/C [3]: 101 % of control

O=c1cccccc1O.O=c1cccccc1O.O=c1cccccc1O.[Cr]
T/C (dose: 75.0 mg/kg/injection, schedule: Q04DX003 (ip), vehicle: saline): 100 % of control | T/C (dose: 150.0 mg/kg/injection, schedule: Q04DX003 (ip), vehicle: saline): 104 % of control | T/C (dose: 300.0 mg/kg/injection, schedule: Q04DX003 (ip), vehicle: saline): 90 % of control

COc1ccc(OC)c2c1C=CCC=C2
T/C (dose: 50.0 mg/kg/injection, schedule: Q01DX009 (ip), vehicle: saline with Tween-80): 95 % of control | T/C [4]: 88 % of control | T/C (dose: 100.0 mg/kg/injection, schedule: Q04DX003 (ip), vehicle: acetone): 117 % of control | T/C [5]: 102 % of control | T/C (dose: 200.0 mg/kg/injection, schedule: Q04DX003 (ip), vehicle: acetone): 94 % of control

c1ccc(COCCNCCOCc2ccccc2)cc1
T/C (dose: 12.5 mg/kg/injection, schedule: Q01DX009 (ip), vehicle: Klucel (hydroxypropylcellulose) (HPC)): 100 % of control | T/C (dose: 12.5 mg/kg/injection, schedule: Q04DX003 (ip), vehicle: Klucel (hydroxypropylcellulose) (HPC)): 107 % of control | T/C (dose: 25.0 mg/kg/injection, schedule: Q01DX009 (ip), vehicle: Klucel (hydroxypropylcellulose) (HPC)): 96 % of control | T/C (dose: 25.0 mg/kg/injection, schedule: Q04DX003 (ip), vehicle: Klucel (hydroxypropylcellulose) (HPC)): 94 % of control | T/C (dose: 50.0 mg/kg/injection, schedule: Q01DX009 (ip), vehicle: Klucel (hydroxypropylcellulose) (HPC)): 95 % of control | T/C (dose: 50.0 mg/kg/injection, schedule: Q04DX003 (ip), vehicle: Klucel (hydroxypropylcellulose) (HPC)): 95 % of control

CCCCO.CCCCO.Cl.[O]=[V]
T/C (dose: 4.0 mg/kg/injection, schedule: Q01DX015 (ip), vehicle: other): 97 % of control | T/C (dose: 8.0 mg/kg/injection, schedule: Q01DX015 (ip), vehicle: other): 97 % of control | T/C (dose: 16.0 mg/kg/injection, schedule: Q01DX015 (ip), vehicle: other): 96 % of control | T/C (dose: 32.0 mg/kg/injection, schedule: Q01DX015 (ip), vehicle: other): 108 % of control
